# Measurements taken from patent publication US9227967B2, “Inhibitor compounds of semicarbazide-sensitive amine oxidases” (Proximagen Limited, priority 2010, dated 2016).
# pIC50: −log10 of the molar value.
# Molecular target: T1, human SSAO (Homo sapiens, UniProt Q16853)
# T1 construct: made in house
# T1 sequence (Q16853 29-763 limits assumed): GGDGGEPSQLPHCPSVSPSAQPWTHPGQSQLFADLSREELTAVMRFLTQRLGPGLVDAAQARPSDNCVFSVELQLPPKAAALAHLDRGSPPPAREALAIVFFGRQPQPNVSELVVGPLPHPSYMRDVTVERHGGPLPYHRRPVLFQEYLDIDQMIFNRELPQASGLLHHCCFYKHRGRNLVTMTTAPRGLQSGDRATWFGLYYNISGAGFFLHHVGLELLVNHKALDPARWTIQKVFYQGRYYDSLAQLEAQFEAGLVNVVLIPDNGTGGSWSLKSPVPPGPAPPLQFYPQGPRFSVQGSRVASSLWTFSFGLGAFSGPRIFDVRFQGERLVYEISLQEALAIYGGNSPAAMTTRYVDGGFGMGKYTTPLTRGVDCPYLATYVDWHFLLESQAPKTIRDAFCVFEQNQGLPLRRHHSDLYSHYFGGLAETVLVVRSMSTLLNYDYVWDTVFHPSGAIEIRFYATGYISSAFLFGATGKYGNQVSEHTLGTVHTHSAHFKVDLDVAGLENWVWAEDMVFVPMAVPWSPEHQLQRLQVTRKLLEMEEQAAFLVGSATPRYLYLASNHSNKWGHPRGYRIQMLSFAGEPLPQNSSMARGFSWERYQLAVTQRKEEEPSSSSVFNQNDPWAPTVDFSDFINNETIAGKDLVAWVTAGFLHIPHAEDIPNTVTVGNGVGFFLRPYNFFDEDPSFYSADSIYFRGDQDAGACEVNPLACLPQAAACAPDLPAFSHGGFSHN
# Test: SSAO enzyme inhibition assay (benzylamine substrate; HRP-coupled hydrogen peroxide detection or 14C-benzaldehyde detection)
# Assay type: biochemical
# Conditions: purified recombinantly expressed human SSAO, benzylamine as substrate, r.t.; read-out: SSAO inhibitory activity IC50
# In short: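 Purified recombinant human SSAO, pre-incubated ~15 min at r.t. with compound, then benzylamine added; final DMSO ≦2%. HRP-coupled Amplex format in 50 mM sodium phosphate pH 7.4: enzyme 1 μg/ml, benzylamine 100 μM (≈Km), fluorescence over 1-2 h; 14C format: enzyme 10 μg/ml, benzylamine 40 μM, 1 h. IC50 from four-parameter fit.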
row,Compound,pIC50
1,"Clc1ccc(-n2cc(C3CCOCC3)c3ccncc32)nc1 [Compound 103, 5-Chloro-2-[3-(oxan-4-yl)-1H-pyrrolo[2,3-c]pyridin-1-yl]pyridine]",6.30 to 7.00
2,"Clc1ccc(-n2cc(N3CCOCC3)c3ccncc32)cc1 [Compound 104, 4-[1-(4-Chlorophenyl)-1H-pyrrolo[2,3-c]pyridin-3-yl]morpholine 2,2,2-trifluoroacetic acid]",> 7.00
3,"Cc1ccc(-n2c(C)c(C3=CCOCC3)c3ccncc32)cc1 [Compound 107, 3-(3,6-Dihydro-2H-pyran-4-yl)-2-methyl-1-(4-methylphenyl)-1H-pyrrolo[2,3-c]pyridine]",> 7.00

# Further lines, results first:
row,pIC50,Compound
1,> 7.00,"NCCCC(=O)N1CCC(c2cn(-c3ccc(Cl)cc3)c3cnccc23)CC1 [Compound 105, 2,2,2-Trifluoroacetic acid; 4-amino-1-{4-[1-(4-chlorophenyl)-1H-pyrrolo[2,3-c]pyridin-3-yl]piperidin-1-yl}butan-1-one]"
2,> 7.00,"NCCOC(=O)N1CCC(c2cn(-c3ccc(Cl)cc3)c3cnccc23)CC1 [Compound 106, 2-Aminoethyl 4-[1-(4-chlorophenyl)-1H-pyrrolo[2,3-c]pyridin-3-yl]piperidine-1-carboxylate]"
